Holding throughout (assay type): in vivo
For assay [1], the system named is Phakopsora pachyrhizi. Nature of the assay: Fungicidal activity: Asian soybean rust (PHAKPA), disease control on soybean seedlings. The following applies: High volume at 25 ppm. The method, then:
Technical grades of materials were dissolved in acetone, which were then mixed with nine volumes of water containing 0.011% Tween 20. The fungicide solutions were applied onto soybean seedlings using an automated booth sprayer to run-off. All sprayed plants were allowed to air dry prior to further handling.
Soybean plants (variety Williams 82) were grown in soil-less Metro mix, with one plant per pot. Two weeks old seedlings were used for testing. Plants were inoculated either 3 days prior to or 1 day after fungicide treatments. Plants were incubated for 24 h in a dark dew room at 22° C. and 100% relative humidity then transferred to a growth room at 23° C. for disease to develop. Disease severity was assessed on the sprayed leaves.

The test system of assay [2] is Zymoseptoria tritici. Nature of the assay: Fungicidal activity: leaf blotch of wheat (SEPTTR), percent disease control on wheat seedlings. The following applies: Zymoseptoria tritici, LV (low volume) activity at 121.5 g/H. As for the experimental part: Technical grades of materials were dissolved in acetone, which were then mixed with nine volumes of water containing 110 ppm Triton X-100. The fungicide solutions were applied onto wheat seedlings using an automated booth sprayer to run-off. All sprayed plants were allowed to air dry prior to further handling. All fungicides were evaluated using the aforementioned method for their activity vs. all target diseases, unless stated otherwise. Wheat leaf blotch and brown rust activity were also evaluated using track spray applications, in which case the fungicides were formulated as EC formulations, containing 0.1% Trycol 5941 in the spray solutions. Wheat plants (variety Yuma) were grown from seed in a greenhouse in 50% mineral soil/50% soil-less Metro mix until the first leaf was fully emerged, with 7-10 seedlings per pot. These plants were inoculated with an aqueous spore suspension of Zymoseptoria tritici either prior to or after fungicide treatments. After inoculation the plants were kept in 100% relative humidity (one day in a dark dew chamber followed by two to three days in a lighted dew chamber at 20° C.) to permit spores to germinate and infect the leaf. The plants were then transferred to a greenhouse set at 20° C. for disease to develop. When disease symptoms were fully expressed on the 1st leaves of untreated plants, infection levels were assessed on a scale of 0 to 100 percent disease severity. Percent disease control was calculated using the ratio of disease severity on treated plants relative to untreated plants.

For assay [3], the system named is Puccinia triticina. Nature of the assay: Fungicidal activity: wheat brown rust (PUCCRT), percent disease control on wheat seedlings. Particulars: Puccinia triticina, LV (low volume) activity at 121.5 g/H. The method, then:
Technical grades of materials were dissolved in acetone, which were then mixed with nine volumes of water containing 110 ppm Triton X-100. The fungicide solutions were applied onto wheat seedlings using an automated booth sprayer to run-off. All sprayed plants were allowed to air dry prior to further handling. All fungicides were evaluated using the aforementioned method for their activity vs. all target diseases, unless stated otherwise. Wheat leaf blotch and brown rust activity were also evaluated using track spray applications, in which case the fungicides were formulated as EC formulations, containing 0.1% Trycol 5941 in the spray solutions. Wheat plants (variety Yuma) were grown from seed in a greenhouse in 50% mineral soil/50% soil-less Metro mix until the first leaf was fully emerged, with 7-10 seedlings per pot. These plants were inoculated with an aqueous spore suspension of Puccinia triticina either prior to or after fungicide treatments. After inoculation the plants were kept in a dark dew room at 22° C. with 100% relative humidity overnight to permit spores to germinate and infect the leaf. The plants were then transferred to a greenhouse set at 24° C. for disease to develop. Fungicide formulation, application and disease assessment followed the procedures as described in the Example A. Results of the evaluations are shown below in Table 4.

Where [4] appears, read: 24 h, 1 Day Protectant, read-out: PHAKPA 1DP disease control rating.
Where [5] appears, read: 72 h, 3 Day Curative, read-out: PHAKPA 3DC disease control rating.
The mark [6] stands for this setting: 24 h, 1 Day Protectant, read-out: SEPTTR 1DP disease control rating.
The mark [7] stands for this setting: 72 h, 3 Day Curative, read-out: SEPTTR 3DC disease control rating.
Where [8] appears, read: 24 h, 1 Day Protectant, read-out: PUCCRT 1DP disease control rating.
[9] abbreviates: 72 h, 3 Day Curative, read-out: PUCCRT 3DC disease control rating.

The structures appear in SMILES notation. Like-named read-outs stand apart in the source and are kept apart here.

`COc1ccnc(C(=O)N[C@@H](C)C(=O)O[C@@H](C)[C@H](Sc2ccccc2)c2ccccc2)c1OCOC(=O)C(C)C` [Compound 79]: the pest or weed control at 25 ppm in assay [1] (setting [4]) and in assay [1] (setting [5]) was at most 80% each time. Moreover, the pest or weed control at 121.5 g/ha in assay [2] (setting [6]) is over 80%; in assay [2] (setting [7]), over 80%; in assay [3] (setting [8]) it was over 80%; in assay [3] (setting [9]), at most 80%.
As to `COc1ccnc(C(=O)N[C@@H](C)C(=O)O[C@@H](C)[C@H](Sc2ccccc2)c2ccccc2)c1OCOC(C)=O` [Compound 80], the pest or weed control at 25 ppm in assay [1] (setting [4]) and in assay [1] (setting [5]) was at most 80% in each case. For the same molecule, the pest or weed control at 121.5 g/ha in assay [2] (setting [6]) was at most 80%; in assay [2] (setting [7]) it was at most 80%; in assay [3] (setting [8]), over 80%; in assay [3] (setting [9]), at most 80%.
As to `COc1ccnc(C(=O)N[C@@H](C)C(=O)O[C@@H](C)[C@H](Sc2ccccc2)c2ccccc2)c1OC(=O)C(C)C` [Compound 81], the pest or weed control at 25 ppm in assay [1] (setting [4]) and in assay [1] (setting [5]) was at most 80% in each case. The pest or weed control at 121.5 g/ha in assay [2] (setting [6]), in assay [2] (setting [7]), in assay [3] (setting [8]) and in assay [3] (setting [9]) was at most 80% each time.
For `COc1ccnc(C(=O)N[C@@H](C)C(=O)O[C@@H](C)[C@H](Sc2ccccc2)c2ccccc2)c1OC(C)=O` [Compound 82], the pest or weed control at 25 ppm in assay [1] (setting [4]) and in assay [1] (setting [5]) was at most 80% throughout. Moreover, the pest or weed control at 121.5 g/ha in assay [2] (setting [6]) was at most 80%; in assay [2] (setting [7]) it was at most 80%; in assay [3] (setting [8]), over 80%; in assay [3] (setting [9]), at most 80%.
`COc1cc(F)ccc1[C@@H](Sc1ccccc1)[C@H](C)OC(=O)[C@H](C)NC(=O)c1nccc(OC)c1OC(C)=O` [Compound 84]: the pest or weed control at 25 ppm in assay [1] (setting [4]) was at most 80%; in assay [1] (setting [5]) it was at most 0%. Also, the pest or weed control at 121.5 g/ha in assay [2] (setting [6]) was over 80%; in assay [2] (setting [7]) it was at most 0%; in assay [3] (setting [8]) it was at most 80%; in assay [3] (setting [9]), at most 80%.
Turning to `COc1ccnc(C(=S)N[C@@H](C)C(=O)O[C@@H](C)[C@H](Sc2ccccc2)c2ccc(F)cc2)c1OC(C)=O` [Compound 85], the pest or weed control at 25 ppm in assay [1] (setting [4]) was at most 80%; in assay [1] (setting [5]), at most 0%. Besides, the pest or weed control at 121.5 g/ha in assay [2] (setting [6]) is at most 80%; in assay [2] (setting [7]) it was at most 0%; in assay [3] (setting [8]), at most 80%; in assay [3] (setting [9]), at most 0%.
